# Assays:
# [1] = system: Senile dementia fruit fly (Aβ42, P35*H29.3); assay: Learning and memory (olfactory short-term memory, T-Maze performance index) of Senile dementia fruit fly; assay type: in vivo; conditions: for improvement of learning and memory function of Senile dementia fruit fly (in words): 100 μM, compared with untreated disease flies and positive control drug memantine; for PI (100 μM) learning and memory performance index: Senile dementia disease flies (P35*H29.3), drug administered at 100 μM, n = 6
# Description: (1) Cultivation of Senile Dementia Fruit Fly W^1118 (isoCJI), as a background fruit fly of control group in the experiment, was abbreviated as “2U”. The fruit flies that successfully introduced with the pathogenic Aβ42 protein were (UAS-Aβ42; abbreviated as “H29.3”). This strain of fruit flies was hybridized with the fruit fly expressing the Gal4 promoter in whole brain, and the fruit fly strain carrying elav-GAL4^[…] (P35) and Aβ42 was obtained. (2) Administration of Senile Dementia Fruit Fly Three groups of drug-free control of healthy fruit fly, drug-free control of disease fruit fly, and dose disease fruit fly were set in the experiment. All parents of tested fruit flies were housed and propagated at a constant temperature of 24° C. and a humidity of 42% RH (Relative humidity). On the first day after the emergence of the fruit flies, the fruit flies of control group and disease group, as well as the fruit flies to be administered were anesthetized with carbon dioxide, and the fruit flies of the correct characters were selected into the glass tube containing food. During the dosing period, all test fruit flies were kept in an incubator with a constant temperature of 28° C. and a constant humidity of 42% to ensure the drug taking efficiency of the fruit flies. Each day the fruit flies were administered for 4 hours, and the drug was administered from the second day after the fruit flies were selected until the 8th day. The drugs administered were prepared on the second day after the fruit fly selection, and were administered to the fruit flies on the day of preparation. The drugs were dissolved by 100% DMSO to a concentration of 10 mM. When preparing the working solution, the 10 mM stock solution was diluted to 100 μM with 4% sucrose. In addition, the fruit flies of control group were fed sucrose water containing 1% DMSO. For each Performance Index, two tubes of fruit fly groups are required, each tube containing about 100 fruit flies. Experiments were conducted in a light proof behavior room with constant temperature of 25 ° C., constant humidity of 70%. The method can be found in references ^[1-3]. 1) During the training stage, about 100 flies were loaded into a training tube provided with a copper mesh cross electrode. Two kinds of odors of octanol (OCT) and methylcyclohexanol (MCH) were successively introduced for each 60 s with an intervals for 45 s of fresh air. 60 V pulsed electrical shock stimulation (US, pulse duration 1.5 s, interval 3.5 s) was applied to the fruit flies while introducing the 1st odor. No electrical shock was applied when the second odor (CS-) was introduced. Thereby one training cycle was completed. 2) In the transient memory (learning) ability test, the fruit flies that completed one training cycle were immediately transferred to the selection point of T-Maze, while CS+ and CS- were introduced from the opposite two directions. After two minutes of selection, the fruit flies on both sides were collected separately and counted after anesthesia or sacrifice. […] When performing the activity test, the short-term memory deficit tests for the olfactory sensation of the non-administered healthy flies with the same genetic background (2U*H29.3), non-administered Senile dementia disease flies (P35*[…].3), and test drug administered Senile dementia disease flies were also conducted, and their total learning and memory performance indexes (PIs) was calculated respectively. […]
# [2] = Oxygen radical absorbance capacity (ORAC) antioxidant experiment; conditions: for ORAC value (μmol TE/μmol): relative to Trolox standard, AAPH, fluorescein
# Description: The antioxidant activity of the compounds was evaluated by using the oxygen radical absorbance capacity (ORAC) experiment. The detailed experimental procedure is as follows. 0.248 g of AAPH (2,2′-azobisisobutylamidine dihydrochloride) was added to a 50 mL phosphate buffer system to formulate a 18.3 mM AAPH stock solution. 20 μL of phosphate buffer, 20 μL solution of sample to be tested or standard substance Trolox (concentration of 6.25 μM) and 20 μL of fluorescent substance of disodium fluorescein (FL, concentration of 630 nM) were added into the wells of a 96-well plate in order. Then, 140 μL of AAPH (concentration of 18.3 mM) was quickly added to the wells of a 96-well plate, which was immediately placed in a GENios […] microplate reader manufactured by Tecan, Switzerland, the excitation wavelength was set as 485 nm and the emission wavelength was set as 527 nm. The fluorescence intensity was measured every 2 minutes and recorded for a total of 100 min.
# The antioxidant capacity of the active substance is calculated as follows: Relative ORAC value=(AUCsample−AUCblank)/(AUCtrolox−AUCblank). Wherein, AUCsample refers to the integral area under the fluorescence decay curve of the test sample, AUCtrolox refers to the integral area under the fluorescence decay curve of the standard substance Trolox, and AUCblank refers to the integral area under the fluorescence decay curve when the test sample or the standard substance Trolox is not added.
Structure (SMILES),improvement of learning and memory function of Senile dementia fruit fly (in words) [1],PI (100 μM) learning and memory performance index [1],"antioxidant activity (in words) ([2]; ORAC, compared with positive control EGCG)",ORAC value (μmol TE/μmol) [2]
O=C1/C=C/c2ccc(O)c(c2)Oc2cc(O[C@@H]3O[C@H](CO)[C@@H](O)[C@H](O)[C@H]3O)c(O)cc2CCC(=O)NCCCCNCCCN1 [Formula II],significantly improve the learning and memory function,37.1 ± 2.2**,comparable to that of the positive control drug,1.48 ± 0.01 μmol TE/μmol
"O=C(O[C@@H]1Cc2c(O)cc(O)cc2O[C@@H]1c1cc(O)c(O)c(O)c1)c1cc(O)c(O)c(O)c1 [EGCG, epigallocatechin gallate, reference compound]",–,–,–,1.48 ± 0.02 μmol TE/μmol
O=C1/C=C/c2ccc(O)c(c2)Oc2cc(O[C@@H]3O[C@H](CO)[C@@H](O)[C@H](O[C@@H]4O[C@H](CO)[C@@H](O)[C@H](O)[C@H]4O)[C@H]3O)c(O)cc2CCC(=O)NCCCCNCCCN1 [Formula III],superior to the positive control drug,45.9 ± 1.9***,–,0.96 ± 0.03 μmol TE/μmol
"CC12CC3CC(C)(C1)CC(N)(C3)C2 [Memantine, memantine, reference compound]",–,44.2 ± 2.1***,–,–

# Reference: US10457702B2, “Dicaffeoyl spermidine cyclized derivatives and use thereof” (Jinan University, priority 2016, dated 2019)
